A short description of assay [1]: In vitro effective concentration tested on HEK293 cells co-transfected with ferret Dopamine receptor D4 using FLIPR assay.
Assay [2] in a line: In vitro effective concentration tested on HEK293 cells co-transfected with ferret Dopamine receptor D2 using FLIPR assay.

SMILES strings stand for the structures.

`NCCc1ccc(O)c(O)c1`: the EC50 in assay [1] came to 2.7 nM. Same read-out and setting: the same measure for `c1ccc(N2CCN(Cc3nc4ccccc4[nH]3)CC2)nc1` [2-((4-(pyridin-2-yl)piperazin-1-yl)methyl)-1H-benzo[d]imidazole]: 23.2 nM. Take `Fc1ccc2[nH]c(CN3CCN(c4ccccn4)CC3)cc2c1` [5-Fluoro-2-(4-pyridin-2-yl-piperazin-1-ylmethyl)-1H-indole]: the results for the EC50 in assay [2] and in assay [1] were 527 nM and 22 nM, respectively. `CN1CCc2cccc3c2[C@H]1Cc1ccc(O)c(O)c1-3` [APOKYN] yielded an EC50 in assay [1] of 1.5 nM.

The record behind these values is BindingDB's records for doi:10.1021/jm030505a (Abbott Laboratories, 2004).
